Consider four compounds from patent US11040223B2, “Compositions and methods related to xCT peptides” (AGILVAX, INC., priority 2015, dated 2021).

One series deals with T1, xCT (Homo sapiens, UniProt Q9UPY5).
T1 sequence (Q9UPY5 1-501): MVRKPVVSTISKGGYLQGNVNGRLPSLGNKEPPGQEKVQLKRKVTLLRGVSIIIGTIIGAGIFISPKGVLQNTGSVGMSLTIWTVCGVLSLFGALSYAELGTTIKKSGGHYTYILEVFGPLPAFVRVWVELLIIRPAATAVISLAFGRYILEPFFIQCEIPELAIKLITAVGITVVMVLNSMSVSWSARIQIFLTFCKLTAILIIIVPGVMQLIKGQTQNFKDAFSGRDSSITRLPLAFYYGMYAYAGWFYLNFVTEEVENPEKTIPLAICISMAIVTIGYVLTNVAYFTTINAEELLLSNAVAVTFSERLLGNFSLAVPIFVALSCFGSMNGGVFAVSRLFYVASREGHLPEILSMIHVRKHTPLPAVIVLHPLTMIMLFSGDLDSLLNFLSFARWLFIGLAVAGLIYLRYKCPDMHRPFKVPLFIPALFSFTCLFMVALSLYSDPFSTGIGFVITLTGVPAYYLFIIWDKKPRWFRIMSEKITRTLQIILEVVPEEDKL
T1 sequence (P08195 1-529 partner): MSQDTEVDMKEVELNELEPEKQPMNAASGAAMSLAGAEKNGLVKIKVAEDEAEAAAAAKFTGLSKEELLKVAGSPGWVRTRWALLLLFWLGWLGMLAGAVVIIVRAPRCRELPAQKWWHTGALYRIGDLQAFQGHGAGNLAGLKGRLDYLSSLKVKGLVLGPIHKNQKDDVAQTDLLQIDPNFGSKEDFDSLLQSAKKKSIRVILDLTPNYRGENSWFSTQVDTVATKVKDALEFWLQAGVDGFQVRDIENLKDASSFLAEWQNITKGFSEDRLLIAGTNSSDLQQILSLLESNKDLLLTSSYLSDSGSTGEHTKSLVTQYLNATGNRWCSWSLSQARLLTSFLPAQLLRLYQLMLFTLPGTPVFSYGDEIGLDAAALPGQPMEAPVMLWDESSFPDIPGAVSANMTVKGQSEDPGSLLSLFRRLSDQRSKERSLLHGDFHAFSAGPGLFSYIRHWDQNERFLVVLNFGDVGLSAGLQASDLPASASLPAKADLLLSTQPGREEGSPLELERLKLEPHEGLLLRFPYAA
The following applies: animal models; cited from earlier work.

The next series concerns TUBO cells. The series is described as follows: MTT in vitro cytotoxicity on TUBO cells. The format is cell-based, mouse. To be noted: 72 hours. The protocol: (§1) A MTT test was performed on TUBO cells and tumorspheres that had either been treated or not with scalar doses of xCT inhibitor SASP. […] On the contrary, xCT overexpression increases colony generating ability, as confirmed by the higher number of colonies generated in soft agar by NIH/3T3 and HEK-293 cells transfected with xCT when compared with the corresponding cells transfected with empty plasmids.
(§2) Twenty-four hours after TUBO cells and tumorspheres seeding in 96-well plates, scalar doses of doxorubicin or sulfasalazine (SASP; Sigma-Aldrich) were added and incubated at 37° C. for 72 hours. Cytotoxicity was evaluated with MTT using the Cell Proliferation Kit I (Roche Diagnostics).

The subject of series [1] is TUBO-derived tumorspheres. The experiment in a line: MTT in vitro cytotoxicity on tumorspheres. In kind it is cell-based. The following applies: Mus musculus, 72 hours, read-out: IC50, tumorsphere viability (MTT). As for the experimental part:
as §1, §2

The next series concerns tumorspheres. The series is described as follows: Tumorsphere generation after SASP or xCT siRNAs. In kind it is cell-based, mouse. The following applies: spheres counted 5 days later (SASP). The protocol:
FIG. 4A-4H. xCT regulates CSC self-renewal and the intracellular redox balance. A and B, MTT assay of the cytotoxic effect exerted by scalar doses of SASP or by anti-xCT siRNAs on TUBO (A) and tumorspheres (B). (C) Sphere generation ability relative to untreated cells of tumorspheres incubated with SASP. (D) Sphere generation ability of tumorspheres incubated with siRNAs to xCT, scrambled siRNAs, or not at all shown as tumorsphere number/10^3 plated cells. (E) and (F) FACS analysis of xCT and CSC marker expression in spheres 24 hours after transfection with siRNAs to xCT or scrambled siRNAs. (E) histograms show xCT expression; open histograms show the background of negative control IgG stained cells from one representative experiment. (F) relative expression (%) of xCT^+, Sca-1^+, and CD44^high/CD24^low cells in tumorsphere-derived cells transfected with siRNAs to xCT (black bars) compared with cells transfected with scrambled siRNAs (dashed line). G and H, GSH (G) and ROS (H) levels in TUBO cells and their derived tumorspheres after either seeding in normal conditions, transfection with siRNAs to xCT, or scrambled siRNAs over three independent experiments. *, P<0.05; **, P<0.01;***, P<0.001, Student t test. […]
Dissociated tumorspheres were cultured with scalar doses of SASP or its diluent DMSO (Sigma-Aldrich), and the total number of tumorspheres/well was counted 5 days later.

For series [2] the following is noted: physiological conditions; cited from earlier work.
The conditions of series [3]: in vivo; cited from earlier work.
The test system of series [4] is HCC-1806 derived tumorspheres. The experiment in a line: FACS binding of immune sera from VLP immunized mice to tumorspheres. In kind it is cell-based, human. To be noted: sera (1:50) of mice immunized with VLPs 3 times at 2 week intervals; passage 2 HCC-1806 tumorspheres. The protocol:
FIG. 1A-1B. xCT VLPs elicit antibodies that bind to tumorspheres. Immune sera (1:50) from xCT or control (MS2) VLP immunized mice were incubated with HCC-1806 derived tumorspheres. A FITC conjugated anti mouse IgG was used to detect sera antibodies bound to the cells. (A) FACS analysis of the percentage of tumorsphere cells that bound to the immune sera. As a positive control for xCT binding, we used a commercially available xCT polyclonal antibody. (B) Immunofluorescence analysis showing antibody binding to a tumorsphere from an xCT ECD 6 immunized mouse. Cell nuclei are stained with DAPI.
To determine if xCT VLP vaccination generated antibodies that could bind to breast cancer stem cells, sera from animals immunized with VLPs 3 times at 2 week intervals were incubated with passage 2 tumorspheres from the human cell line HCC-1806.

The subject of series [5] is mouse tubo-derived tumorspheres. The series is described as follows: Lung metastases in VLP immunized mice injected i.v. with tumorspheres. The following applies: 5×10^4 tumorspheres i.v., lungs 20 days later, vs MS2 control VLPs. The format is in vivo. The protocol: FIG. 2. […] Mice immunized with xCT or MS2 control VLPs were injected (i.v) with 5×10^4 mouse tubo-derived tumorspheres. 20 days later, animals were euthanized and lungs were removed, section and the number of metastatic foci were measured. The number of mice were MS2 (n=2), xCT ECD3 (n=5), xCT ECD5 (n=5) and xCT ECD6 (n=4). Metastatic lesions were counted from two lung sections per animal. Data presented is the average number of lesions per slide. Two-tailed student t test was used to determine significance. ** indicates a p-value <0.01.
Inhibition of xCT function by a […] vaccine inhibits the number of metastatic lesions in the lung by 40% in a well characterized breast cancer stem cell transplantation model.

Series [6] concerns TUBO-derived tumorspheres. The series is described as follows: Growth of s.c. tumors from TUBO-derived tumorspheres in vaccinated BALB/c mice. The following applies: treated at 2 mm mean diameter, repeated the week later.
Source text: TUBO-derived tumorspheres were s.c. implanted into BALB/c mice that were vaccinated when tumors reached 2 or 4 mm mean diameter to evaluate whether xCT immune-targeting hinders breast cancer growth (FIG. 6A-6D).
Female 6- to 8-week-old wild-type (Charles River Laboratories) and Ig μ-chain gene knocked out (BALB-μIgKO) BALB/c mice were maintained at the Molecular Biotechnology Center, University of Torin, and treated in accordance with the University Ethical Committee and European guidelines under Directive 2010/63. Vaccination, performed either before or after tumor challenge, consisted of two intramuscular electroporations at 2 weeks interval, of pVAX1 or pVAX1-xCT plasmids.
Primary s.c. tumors were induced by injecting 1×10^4 TUBO or 4T1 tumorsphere-derived cells.

Broadly, the IC50 is the midpoint of a concentration-inhibition curve.

For the compound `O=C(O)c1cc(/N=N/c2ccc(S(=O)(=O)Nc3ccccn3)cc2)ccc1O` [SASP, sulfasalazine], the metastatic foci result on xCT is recorded as “significant decreases in metastatic foci”. In addition, the half-maximal inhibitory concentration (IC50) with TUBO cells (Mus musculus, TUBO cells, read-out: IC50, cell viability (MTT)) was found to be 126 ± 25.7 µM; in [1], 51.6 ± 3.5 µM. Besides, in the series on tumorspheres, the tumorsphere generation result is recorded as “impaired tumorsphere generation”. Further, the stability and solubility result in series [2] was “labile and insoluble under physiological conditions”. In addition, the bioavailability result in series [3] is “low bioavailability”.

As to “xCT ECD6: MS2 VLP displaying extracellular domain 6 of human xCT in the AB loop of the coat protein (YSDPFS; displayed on MS2 VLP coat protein AB loop; listed as Homo sapiens)”, the “antibody response: immune sera antibodies binding to tumorspheres by FACS” value in [4] was “generated antibodies against xCT that were able to bind to human breast cancer cells as well as a commercially available xCT antibody”. For the same compound, the “reduction of the number of metastases in the lung” value in series [5] is approximately 60%.

With “xCT ECD3: MS2 VLP displaying extracellular domain 3 of human xCT in the AB loop of the coat protein (MQLIKGQTQNFKDAFSGRDSSITR; displayed on MS2 VLP coat protein AB loop; listed as Homo sapiens)”, the “antibody response: immune sera antibodies binding to tumorspheres by FACS” value in series [4] is on record as “generated antibodies against xCT that were able to bind to human breast cancer cells as well as a commercially available xCT antibody”.

In the case of `COc1cccc2c1C(=O)c1c(O)c3c(c(O)c1C2=O)C[C@@](O)(C(=O)CO)C[C@@H]3O[C@H]1C[C@H](N)[C@H](O)[C@H](C)O1` [doxorubicin], in series [6], the “mice with tumor regression” value is 25%. In addition, the “sensitivity of TUBO cells compared with tumorspheres (MTT)” value with TUBO cells (scalar doses) is reported as “higher sensitivity”.
